Measurements: publication PMC6277434, “Discovery of a potent HMG-CoA reductase degrader that eliminates statin-induced reductase accumulation and lowers cholesterol” (Nature Communications, 2018)

How the values were obtained:
[1] = tested on: LXR signaling pathway; assay: RT-qPCR of LXR target genes (SREBP-1c, ABCA1, ABCG8) in Huh-7 cells; type: cell-based, human; conditions: 16 h
Method: Cells were treated as described in corresponding figure legends, then total RNA was extracted from cells or mouse livers using TRI Reagent (T9424, Sigma-Aldrich). Equal amounts of RNA from cells or mice receiving the same treatment were pooled were used for cDNA synthesis with oligo dT and reverse transcriptase MLV (Promega). Gene expression was analyzed by quantitative real-time PCR on a Stratagene Mx30005PTM Q-PCR Systems. The primers used were listed in Supplementary Tables 2–4. […]
pathway. a-c Huh-7 cells were treated with indicated compounds for 16 h and then harvested for total RNA isolation and RT-qPCR. Cells treated with LXR agonist T0901317 w ere used as positive controls. The relative mRNA levels of SREBP -1c (a), ABCA1 (b) and ABCG8 (c) were quantified . GAPDH was the reference gene. The relative mRNA level in DMSO-treated cells was defined as 1. Data are from 3 independent experiments and presented as mean ± SD.
(1 picture or pasted object on this page, not shown here)

[2] = tested on: Hmgcr mRNA; assay: RT-qPCR of Hmgcr mRNA in CHO-7 cells; type: cell-based, Chinese hamster; conditions: DMSO = 1; for HMGCR mRNA level, mean: 16 h
Method: Cells were treated as described in corresponding figure legends, then total RNA was extracted from cells or mouse livers using TRI Reagent (T9424, Sigma-Aldrich). Equal amounts of RNA from cells or mice receiving the same treatment were pooled were used for cDNA synthesis with oligo dT and reverse transcriptase MLV (Promega). Gene expression was analyzed by quantitative real-time PCR on a Stratagene Mx30005PTM Q-PCR Systems. The primers used were listed in Supplementary Tables 2–4.

[3] = target: T1, K89R/K248R HMGCR (Cricetulus griseus, UniProt P00347, K248R/K89R); assay: Immunoblotting of overexpressed K89R/K248R HMGCR in Huh7 cells; type: cell-based; design: expressed in transfected cells; host or cells: Huh7 (A8); conditions: lovastatin
T1 sequence (P00347 1-887 K89R/K248R): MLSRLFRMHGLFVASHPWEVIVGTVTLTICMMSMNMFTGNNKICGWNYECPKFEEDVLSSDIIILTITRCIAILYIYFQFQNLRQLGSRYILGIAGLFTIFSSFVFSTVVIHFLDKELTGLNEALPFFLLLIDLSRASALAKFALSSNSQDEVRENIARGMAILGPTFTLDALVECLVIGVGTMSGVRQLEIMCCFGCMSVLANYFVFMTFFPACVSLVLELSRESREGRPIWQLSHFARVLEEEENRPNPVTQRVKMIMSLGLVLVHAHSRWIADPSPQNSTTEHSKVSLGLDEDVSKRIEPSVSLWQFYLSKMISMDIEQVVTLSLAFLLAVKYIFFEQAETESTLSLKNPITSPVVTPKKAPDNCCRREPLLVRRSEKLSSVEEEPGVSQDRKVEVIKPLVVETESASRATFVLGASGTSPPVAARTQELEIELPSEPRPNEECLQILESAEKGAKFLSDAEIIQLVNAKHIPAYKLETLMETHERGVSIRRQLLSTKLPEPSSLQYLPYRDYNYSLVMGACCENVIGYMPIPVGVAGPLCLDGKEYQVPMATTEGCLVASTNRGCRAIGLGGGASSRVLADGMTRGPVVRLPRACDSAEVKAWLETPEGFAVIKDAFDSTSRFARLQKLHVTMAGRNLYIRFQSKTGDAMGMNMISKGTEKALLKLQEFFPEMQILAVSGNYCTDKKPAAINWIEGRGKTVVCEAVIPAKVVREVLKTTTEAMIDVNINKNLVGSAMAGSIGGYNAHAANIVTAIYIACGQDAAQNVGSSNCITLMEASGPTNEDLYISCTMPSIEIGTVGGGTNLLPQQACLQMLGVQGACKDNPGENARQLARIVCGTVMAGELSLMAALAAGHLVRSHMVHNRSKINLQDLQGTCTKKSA
Method: Cells were harvested and homogenized in the RIPA buffer (50 mM Tris-HCl, pH 8.0, 150 mM NaCl, 2 mM MgCl2, 1.5% NP-40, 0.1% SDS, and 0.5% sodium deoxycholate) supplemented with protease cocktail inhibitor, 10 μM MG-132, 10 μg ml^−1 leupeptin and 1 mM phenylmethylsulfonyl fluoride. The protein concentrations of lysates were determined using BCA method (Beyotime). Samples were mixed with the membrane protein solubilization buffer (62.5 mM Tris-HCl, pH 6.8, 15% SDS, 8 M urea, 10% glycerol, and 100 mM DTT) plus the 4× loading buffer (150 mM Tris-HCl, pH 6.8, 12% SDS, 30% glycerol, 6% 2-mercaptoethanol, and 0.02% bromophenol blue) and incubated for 30 min at 37 °C. Proteins were resolved by SDS-PAGE and transferred to nitrocellulose membranes (GE Healthcare). Immnoblots were blocked with 5% non-fat milk in TBS containing 0.075% Tween-20 (TBST) and probed with indicated antibodies overnight at 4 °C. After washing in TBST for five times, blots were incubated with HRP-conjugated secondary antibodies for 2 h at room temperature. Immunoreactivity was developed with Clarity Western ECL chemiluminescent substrates (170–5061, Bio-Rad). Western blot images were captured by Amersham Imager 600 (GE Healthcare), and integrated optical intensities of each band were quantified by Image-Pro Plus 6 software (Media Cybernetics). […]
RT-qPCR. Quantifications of the relative mRNA levels of indicated SREBP target […]

Row | SMILES | expression of LXR target genes (SREBP-1c, ABCA1 and ABCG8) mRNA [1] | HMGCR mRNA level, mean ([2]; CHO-7, lovastatin 0.001 uM) | HMGCR mRNA level, mean ([2]; CHO-7, lovastatin 0.003 uM) | HMGCR mRNA level, mean ([2]; CHO-7, lovastatin 0.01 uM) | HMGCR mRNA level, mean ([2]; CHO-7, lovastatin 0.03 uM) | HMGCR mRNA level, mean ([2]; CHO-7, lovastatin 0.1 uM) | HMGCR mRNA level, mean ([2]; CHO-7, lovastatin 0.3 uM) | HMGCR mRNA level, mean ([2]; CHO-7, lovastatin 1 uM) | HMGCR mRNA level, mean ([2]; CHO-7, lovastatin 3 uM) | HMGCR mRNA level, mean ([2]; CHO-7, lovastatin 10 uM) | increase of Hmgcr mRNA abundance ([2]; CHO-7 cells, statin 16 h (lovastatin up to 10 μM)) | effect on ubiquitination-resistant K89R/K248R HMGCR protein level [3]
1 | C=CCC(O)(CC=C)CCCC(C)C1CCC2C3C(O)C=C4C(C)(C)C(O)CCC4(C)C3CCC12C (stereo not drawn) [Cmpd 81] | did not induce the expression | – | – | – | – | – | – | – | – | – | – | –
2 | CC[C@H](C)C(=O)O[C@H]1C[C@@H](C)C=C2C=C[C@H](C)[C@H](CC[C@@H]3C[C@@H](O)CC(=O)O3)[C@H]21 [Lovastatin, lovastatin] | – | 1.196 | 1.51 | 1.897 | 2.523 | 2.959 | 3.447 | 3.688 | 3.602 | 3.663 | 3.6 fold | did not induce the protein level further increase
